The source of these data is patent US20070276034A1, “Compounds, compositions and methods for the treatment of synucleinopathies” (priority 2002, published 2007).

Where two headings read alike, the source gives them in different places.

Holding throughout (type): biochemical
In experiment [1] the target is T1, IAPP fibrils (Homo sapiens, UniProt P10997).
T1 construct: purchased Bachem Inc
T1 sequence (P10997 34-70 limits assumed): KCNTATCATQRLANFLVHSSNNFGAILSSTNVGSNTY
Briefly: Thioflavin T fluorometry - disruption of type 2 diabetes IAPP fibrils. The conditions noted are these: 3 days; for inhibition / % Inhibition IAPP (result ± S.D.): 25 μM pre-fibrillized IAPP, 37° C.; for inhibition: read-out: % Inhibition IAPP (result ± S.D.). The procedure, abridged:
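Pre-fibrillized human IAPP (25 μM) incubated 3 days at 37 °C alone or with compound at IAPP:compound weight ratios of 1:1 to 1:0.001. Mixtures then mixed with Thioflavin T in phosphate buffer pH 6.8; fluorescence read at 485 nm (ex 444 nm) after blank subtraction.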

The next experiment addresses T2, monomeric Aβ 1-42 (Homo sapiens, UniProt P05067).
T2 construct: purchased Bachem Inc
Briefly: SDS-PAGE/Western blot of Aβ 1-42 after incubation with compounds. The conditions noted are these: 25 μM pre-fibrillized Aβ 1-42, 37° C., 3 days, 0.2 μm filtrate, antibody 6E10. How it is done:
In this latter study, triplicate samples of pre-fibrillized Aβ 1-42 (25 μM) was incubated at 37° C. for 3 days, alone or in the presence of the compounds or EDTA. Five micrograms of each sample was then filtered through a 0.2 μm filter. Protein recovered from the filtrate was then loaded, and ran on a 10-20% Tris-Tricine SDS-PAGE, blotted to nitrocellulose and detected using an Aβ-antibody (clone 6E10; Senetek).

For another experiment, the target named is T3, Aβ 1-42 fibrils (Homo sapiens, UniProt P05067).
T3 construct: purchased Bachem Inc
Description: Thioflavin T fluorometry - disruption of pre-formed Aβ 1-42 Alzheimer's fibrils. The conditions noted are these: 3 days; for inhibition / % Inhibition Aβ (result ± S.D.): 25 μM pre-fibrillized Aβ 1-42, 37° C.; for inhibition: read-out: % Inhibition Aβ (result ± S.D.). The procedure, abridged:
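Pre-fibrillized Aβ1-42 (25 µM) incubated 3 days at 37 °C alone or with compound at Aβ:compound weight ratios 1:1 to 1:0.001. Remaining fibrils quantified by Thioflavin T fluorescence (ex 444/em 485 nm) in phosphate buffer pH 6.8, blank-subtracted for buffer or compound alone.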

Experiment [2] concerns the target T1, IAPP fibrils. Description: Congo red binding assay with IAPP fibrils. The conditions noted are these: for % Inhibition IAPP (result ± S.D.), Congo red binding: 3-day incubation. The procedure, abridged:
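Congo red staining of washed 0.2 μm filters measured the aggregated IAPP retained after a 3-day co-incubation with compound or EDTA. Weight ratios IAPP:compound were 1:1, 1:0.1, 1:0.01 or 1:0.001; loss of color relative to compound-free IAPP was scored.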

The next experiment deals with T4, NAC fibrils (Homo sapiens, UniProt P37840).
T4 construct: NAC is a 35-amino acid fragment of α-synuclein; purchased Bachem Inc
Briefly: Thioflavin T fluorometry - disruption of Parkinson's disease NAC fibrils. The conditions noted are these: 3 days; for % Inhibition NAC (result ± S.D.): 25 μM pre-fibrillized NAC, 37° C. The procedure, abridged:
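Pre-fibrillized NAC (25 μM) co-incubated 3 days at 37° C with compound at NAC:compound weight ratios 1:1 to 1:0.001. Fibril content read by Thioflavin T fluorescence (phosphate buffer pH 6.8; ex 444/em 485 nm), blank-subtracted for buffer or compound alone.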

Where [3] appears, read: IAPP:test compound wt/wt ratio 1:0.001.
The mark [4] stands for this setting: IAPP:test compound wt/wt ratio 1:0.01.
Setting [5] is: IAPP:test compound wt/wt ratio 1:0.1.
The mark [6] stands for this setting: IAPP:test compound wt/wt ratio 1:1.
The mark [7] stands for this setting: Aβ:test compound wt/wt ratio 1:0.001.
Setting [8] is: Aβ:test compound wt/wt ratio 1:0.01.
[9] abbreviates: Aβ:test compound wt/wt ratio 1:0.1.
[10] abbreviates: Aβ:test compound wt/wt ratio 1:1.
The mark [11] stands for this setting: all concentrations tested (ratios 1:1 to 1:0.001).

T3 sequence (P05067 672-713): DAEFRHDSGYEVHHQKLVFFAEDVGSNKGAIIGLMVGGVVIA
T2 sequence (P05067 672-713): as above

By inhibition is commonly meant how much of the control response was suppressed. For `O=C(NCc1ccc(O)c(O)c1)C(=Cc1ccc(O)c(O)c1)NC(=O)c1ccc(O)c(O)c1` [Compound 21, α-(3,4-dihydroxybenzamido)-3,4-dihydroxycinnamic acid 3,4-dihydroxybenzyl amide], the inhibition on IAPP fibrils [1] (setting [3]) was determined as 5.4 ± 15.4%; at IAPP fibrils [1] (setting [4]), 25.8 ± 3.61%; at IAPP fibrils [1] (setting [5]), 85.4 ± 0.86%; on IAPP fibrils [1] (setting [6]) it was 98.5 ± 0.06%; at Aβ 1-42 fibrils (setting [7]), 8.9 ± 2.13%; at Aβ 1-42 fibrils (setting [8]) it was 48.2 ± 8.29%. Besides, the inhibition on Aβ 1-42 fibrils (setting [9]) stood at 81 ± 1.31%; on Aβ 1-42 fibrils (setting [10]), 98.6 ± 0.54%. In addition, the “detection of Aβ 1-42 monomers (~4 kilodalton band) on Western blot” value (“detection of Aβ 1-42 monomers” below) on monomeric Aβ 1-42 was “not detected”. The “% Inhibition IAPP (result ± S.D.), Congo red binding” value on IAPP fibrils [2] (setting [3]) was determined as 0.0 ± 2.10%; at IAPP fibrils [2] (setting [4]) it was 5.1 ± 4.53%; at IAPP fibrils [2] (setting [5]), 10.4 ± 3.53%; at IAPP fibrils [2] (setting [6]) it was 35.9 ± 0.21%.
As for `O=C(Nc1ccc(O)c(O)c1)c1ccc(O)c(O)c1` [Compound 51, 3,4-dihydroxybenzoic acid 3,4-dihydroxyanilide], the inhibition at IAPP fibrils [1] (setting [3]) came to 11.8 ± 6.45%; at IAPP fibrils [1] (setting [4]) it was 56.6 ± 1.69%; at IAPP fibrils [1] (setting [5]), 96.6 ± 1%; at IAPP fibrils [1] (setting [6]), 99.9 ± 0.11%; at Aβ 1-42 fibrils (setting [7]), 29 ± 25.2%; on Aβ 1-42 fibrils (setting [8]), 55.3 ± 5.23%. Also, the inhibition stood at 94.9 ± 0.24% on Aβ 1-42 fibrils (setting [9]) and 99.4 ± 0.05% at Aβ 1-42 fibrils (setting [10]). The “detection of Aβ 1-42 monomers” value at monomeric Aβ 1-42 is “not detected”. For the same molecule, the “% Inhibition IAPP (result ± S.D.), Congo red binding” value was 1.6 ± 1.01% at IAPP fibrils [2] (setting [3]), 3.6 ± 2.59% at IAPP fibrils [2] (setting [4]), 27.5 ± 3.49% at IAPP fibrils [2] (setting [5]) and 55.6 ± 1.48% on IAPP fibrils [2] (setting [6]).
With `O=C(Nc1ccc(O)c(O)c1)Nc1ccc(O)c(O)c1` [Compound 76, 1,3-bis(3,4-dihydroxyphenyl)urea], the inhibition is 9 ± 0.32% on IAPP fibrils [1] (setting [3]); 41.5 ± 6.67% at IAPP fibrils [1] (setting [4]); 87.5 ± 1.89% at IAPP fibrils [1] (setting [5]); 99.6 ± 1.01% on IAPP fibrils [1] (setting [6]); 12.2 ± 5.98% at Aβ 1-42 fibrils (setting [7]); 40.9 ± 3.76% on Aβ 1-42 fibrils (setting [8]). For the same molecule, the figures for the inhibition at Aβ 1-42 fibrils (setting [9]) and on Aβ 1-42 fibrils (setting [10]) were 86.5 ± 1.18% and 99.3 ± 1.35%, respectively. Also, at monomeric Aβ 1-42, the “detection of Aβ 1-42 monomers” value is given as “not detected”. The “% Inhibition IAPP (result ± S.D.), Congo red binding” value came out at 3.4 ± 1.07% at IAPP fibrils [2] (setting [3]), 14.2 ± 2.25% at IAPP fibrils [2] (setting [4]), 16.5 ± 2.60% on IAPP fibrils [2] (setting [5]) and 53.9 ± 5.44% at IAPP fibrils [2] (setting [6]).
With `O=C(O)CN(CCN(CC(=O)O)CC(=O)O)CC(=O)O` [EDTA, reference compound], the “% Inhibition IAPP (result ± S.D.)” value is on record as 4.2 ± 1.05% on IAPP fibrils [1] (setting [3]), 0.0 ± 5.23% on IAPP fibrils [1] (setting [4]), 0.1 ± 2.59% on IAPP fibrils [1] (setting [5]) and 4.4 ± 9.23% on IAPP fibrils [1] (setting [6]). Further, the “disruption/disassembly of pre-formed IAPP fibrils (in words)” value on IAPP fibrils [1] (setting [11]) is “no significant inhibition”. The “% Inhibition NAC (result ± S.D.)” value is listed as 0.0 ± 11.6% at NAC fibrils (NAC:test compound wt/wt ratio 1:0.001), 0.0 ± 10.87% at NAC fibrils (NAC:test compound wt/wt ratio 1:0.01), 0.0 ± 5.87% on NAC fibrils (NAC:test compound wt/wt ratio 1:0.1) and 20.0 ± 11.8% on NAC fibrils (NAC:test compound wt/wt ratio 1:1). The “disruption/disassembly of pre-formed NAC fibrils (in words)” value at NAC fibrils (setting [11]) is reported as “no significant inhibition”. For the same molecule, the “detection of Aβ 1-42 monomers” value at monomeric Aβ 1-42 was “detected as a ˜4 kilodalton band”. In addition, the “% Inhibition Aβ (result ± S.D.)” value was 0.0 ± 3.01% at Aβ 1-42 fibrils (setting [7]), 0.0 ± 4.88% on Aβ 1-42 fibrils (setting [8]), 0.0 ± 7.12% on Aβ 1-42 fibrils (setting [9]) and 11.3 ± 9.67% on Aβ 1-42 fibrils (setting [10]). Also, the “disruption/disassembly of preformed Aβ 1-42 fibrils (in words)” value on Aβ 1-42 fibrils (setting [11]) is “no significant inhibition”. In addition, the “% Inhibition IAPP (result ± S.D.), Congo red binding” value at IAPP fibrils [2] (setting [3]) is 6.6 ± 2.27%; on IAPP fibrils [2] (setting [4]), 3.6 ± 2.83%; at IAPP fibrils [2] (setting [5]), 0.0 ± 1.91%; at IAPP fibrils [2] (setting [6]) it was 0.0 ± 3.69%. At IAPP fibrils [2] (all concentrations tested (ratios 1:1 to 1:0.001), 3 days), the “inhibition of IAPP fibril binding to Congo red (in words)” value is on record as “no significant inhibition”.
